This experiment has as its target T1, Glucocorticoid receptor (Homo sapiens, UniProt P04150).
T1 sequence (P04150 whole entry): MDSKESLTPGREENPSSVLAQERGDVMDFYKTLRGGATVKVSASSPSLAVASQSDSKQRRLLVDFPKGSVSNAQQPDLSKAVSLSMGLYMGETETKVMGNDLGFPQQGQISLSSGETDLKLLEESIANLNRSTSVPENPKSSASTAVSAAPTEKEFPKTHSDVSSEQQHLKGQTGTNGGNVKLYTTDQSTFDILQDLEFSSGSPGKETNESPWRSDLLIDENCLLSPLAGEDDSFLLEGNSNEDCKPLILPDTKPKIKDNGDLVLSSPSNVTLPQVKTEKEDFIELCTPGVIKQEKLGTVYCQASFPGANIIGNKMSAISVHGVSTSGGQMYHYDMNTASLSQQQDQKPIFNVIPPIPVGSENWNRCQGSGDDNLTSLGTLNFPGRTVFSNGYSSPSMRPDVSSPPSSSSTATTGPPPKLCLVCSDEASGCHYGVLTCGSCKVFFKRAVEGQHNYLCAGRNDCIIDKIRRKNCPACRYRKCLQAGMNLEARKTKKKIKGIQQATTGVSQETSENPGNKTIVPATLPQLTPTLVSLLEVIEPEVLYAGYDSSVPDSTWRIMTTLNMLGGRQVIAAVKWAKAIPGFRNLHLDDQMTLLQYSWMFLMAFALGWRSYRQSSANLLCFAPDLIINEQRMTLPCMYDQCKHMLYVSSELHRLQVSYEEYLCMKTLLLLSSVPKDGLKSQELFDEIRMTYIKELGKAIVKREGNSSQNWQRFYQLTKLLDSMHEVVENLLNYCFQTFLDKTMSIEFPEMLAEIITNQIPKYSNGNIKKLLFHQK

`C[C@]12C=CC(=O)C=C1CC[C@@H]1[C@@H]2[C@@H](O)C[C@@]2(C)[C@H]1C[C@H]1O[C@@H](C3CCCCC3)O[C@]12C(=O)CO` [desisobutyryl-ciclesonide]: the Ki was found to be 0.31 nM.

The values are drawn from BindingDB's records for doi:10.1124/jpet.105.085217 (Imperial College, 2005).
